Test results published in paper PMC6385358, “Discovery of ((1,2,4-oxadiazol-5-yl)pyrrolidin-3-yl)ureidyl derivatives as selective non-steroidal agonists of the G-protein coupled bile acid receptor-1” (Scientific Reports, 2019).

Molecular target: T1, GPBAR1 (Homo sapiens, UniProt Q8TDU6)
T1 construct: expressed in transfected cells; host or cells: HEK-293T
T1 sequence (Q8TDU6 1-330): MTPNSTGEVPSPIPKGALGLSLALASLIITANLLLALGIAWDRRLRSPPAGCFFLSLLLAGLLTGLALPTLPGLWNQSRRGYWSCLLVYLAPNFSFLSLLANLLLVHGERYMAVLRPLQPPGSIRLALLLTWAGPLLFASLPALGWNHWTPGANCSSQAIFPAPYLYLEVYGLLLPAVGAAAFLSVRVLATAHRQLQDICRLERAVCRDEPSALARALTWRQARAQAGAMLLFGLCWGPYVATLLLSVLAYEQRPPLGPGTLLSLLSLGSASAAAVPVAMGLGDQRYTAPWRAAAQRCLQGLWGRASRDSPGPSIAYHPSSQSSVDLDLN
Experiment: Luciferase reporter (CRE) transactivation assay in HEK-293T cells transfected with GPBAR1
Assay type: cell-based
Settings: for Emax at 10 µM: HEK-293T, maximal transactivation of CRE, compound 10 μM vs TLCA 10 μM = 100%, read-out: Efficacy (% vs TLCA)
Protocol: The activity of compounds 1–14 on GPBAR1 was evaluated in a luciferase reporter assay using HEK-293T cells transfected with GPBAR1. The efficacy of tested compounds (Table 1) was measured using taurolithocholic acid (TLCA) as GPBAR1 reference compound[10],[11]. Each compound was tested at the concentration of 10 μM and transactivation activity of TLCA on a cAMP responsive element (CRE) (i.e. TGR5/GPBAR1) was considered equal to 100%. […] Thus, 9 and 10 (Table 1) turned out to be the most promising derivatives considering their low EC50 values and high activity efficacy. To further characterize the pharmacological properties of these compounds, we expanded their in vitro profile to common off-targets for bile acid receptor ligands.
Transactivation assay on HEK-293T cells was performed to investigate GPBAR1 activation, using compound 1–14 and TLCA as positive control at 10 µM, as previously reported.
Supplementary Figure S4. HEK-293T cells were transiently transfected with GPBAR1 and a reporter gene containing a cAMP responsive element in front of the luciferase gene. Cells were stimulated with compounds A-L (10 μM). TLCA (10 μM) was used as positive control. Luciferase activity served as a measure of the rise in intracellular cAMP following activation of GPBAR1. In all panels, results are expressed as mean ± standard error. ^∗p < 0.05 versus not treated cells (NT).

Row | SMILES | Emax at 10 µM [%] | GPBAR1 agonist activity in transactivation assay (10 μM, compared to TLCA)
1 | O[C@H]1CN[C@H](c2nc(-c3ccccc3)no2)C1 [Compound 1] | 58 to 121 | –
2 | [N-]=[N+]=N[C@@H]1CN[C@H](c2nc(-c3ccccc3)no2)C1 [Compound 2] | 58 to 121 | –
3 | N[C@@H]1CN[C@H](c2nc(-c3ccccc3)no2)C1 [Compound 3] | 58 to 121 | –
4 | O=C(Nc1ccc(C(F)(F)F)cc1)N[C@@H]1CN[C@H](c2nc(-c3ccccc3)no2)C1 [Compound 4] | 58 to 121 | moderate GPBAR1 agonist activity
5 | Cc1ccc(NC(=O)N[C@@H]2CN[C@H](c3nc(-c4ccccc4)no3)C2)cc1 [Compound 6] | 58 to 121 | –
6 | O=C(NCc1ccccc1)N[C@@H]1CN[C@H](c2nc(-c3ccccc3)no2)C1 [Compound 11] | 58 to 121 | –
